In US6407130B1, “Carboxamide-substituted benzimidazoles having tryptase-inhibiting activity” (Boehringer Ingelheim Pharma KG, priority 1999, dated 2002):
pIC50: −log10 of the molar value. Where a name gives a salt, the structure may show the parent alone.

Molecular target: T1, rh beta tryptase (Homo sapiens, UniProt Q15661)
T1 construct: purchased Promega
Experiment: tryptase inhibition test (cleavage of N-p-tosyl-Gly-Pro-Lys-para-nitroaniline, p-nitroaniline measured at 405 nm)
Assay type: biochemical
Conditions: Tris HCl buffer pH 7.4 with calcium and heparin; substrate 0.6 mM; 5 minutes' pre-incubation, 5 minutes incubation at 37° C.
Protocol: The compounds according to the invention are characterised by their tryptase-inhibiting activity. This ability to inhibit tryptase was investigated using the test described as follows. The measurement is carried out in Tris HCl buffer (100 mM), which additionally contains calcium (5 mM) and heparin ([…]), at pH 7.4. The standard used is rh beta tryptase which may be obtained commercially from Promega, for example. The substrate used is N-p-tosyl-Gly-Pro-Lys-para-nitroaniline in a concentration of 0.6 mM. The substrate is digested with tryptase to form p-nitroaniline which can be measured at 405 nm. Usually, an incubation period of 5 minutes and an incubation temperature of 37° C. are chosen. The enzyme activity used is 0.91 U/ml. The measurements are carried out in an Autoanalyser (Cobas Bio) made by Hofmann LaRoche. The potential inhibitory substances are used in concentrations of 10 μM in the screening, the inhibition of the tryptase being given in percent. The IC50 is determined at over 70% inhibition (concentration at which 50% of the enzyme activity is inhibited). After 5 minutes' pre-incubation of the potential inhibitory substances, the substrate is added to start the reaction, the formation of p-nitroaniline being taken as a measurement of the enzyme activity after 5 minutes, after testing the linearity.

T1 sequence (Q15661 31-275): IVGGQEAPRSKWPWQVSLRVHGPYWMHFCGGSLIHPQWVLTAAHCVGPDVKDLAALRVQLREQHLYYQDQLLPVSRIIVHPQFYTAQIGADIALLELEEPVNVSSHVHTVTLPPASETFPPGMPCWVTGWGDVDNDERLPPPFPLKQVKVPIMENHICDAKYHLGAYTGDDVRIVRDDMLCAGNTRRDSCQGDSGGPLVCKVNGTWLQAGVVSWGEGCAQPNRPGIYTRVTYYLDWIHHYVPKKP

Row | Compound | pIC50
1 | Cn1c(CCc2ccc(C(=N)N)cc2)nc2cc(N(Cc3cccc4ccccc34)C(=O)Cc3cccc4ccccc34)ccc21 [Example 80, N-{2-[2-(4-Amidinophenyl)-ethyl]-1-methyl-benzimidazol-5-yl}-N-( - naphthylmethyl)-[2-( -naphthyl)-acetamide]-hydrochloride] | 7.52
2 | Cn1c(CCc2ccc(C(=N)N)cc2)nc2cc(N(Cc3ccncc3)C(=O)CNCc3ccc(N)cc3)ccc21 [Example 74, N-{2-[2-(4-Amidinophenyl)-ethyl]-1-methyl-benzimidazol-5-yl}-N-(-pyridin-4-ylmethyl)-[2-(4-aminobenzylamino)-acetamide]-dihydrochloride] | 7.24
3 | Cn1c(CCc2ccc(C(=N)N)cc2)nc2cc(N(Cc3ccccc3)C(=O)CCCCN)ccc21 [Example 32, N-{2-[2-(4-Amidinophenyl)-ethyl]-1-methyl-benzimidazol-5-yl}-N-benzyl-[5-amino-pentanoic acid amide]-dihydrochloride] | 7.24
4 | Cn1c(CCc2ccc(C(=N)N)cc2)nc2cc(N(Cc3cccc4ccccc34)C(=O)CN3CCN(c4ccccn4)CC3)ccc21 [Example 40, N-{2-[2-(4-Amidinophenyl)-ethyl]-1-methyl-benzimidazol-5-yl}-N-( - naphthylmethyl)-[2-(1-pyridin-2-yl-piperazin-4-yl)-acetamide]-dihydro-chloride] | 7.89
5 | Cn1c(CCc2ccc(C(=N)N)cc2)nc2cc(N(Cc3cccc4ccccc34)C(=O)CCC3CCN(Cc4ccccc4)CC3)ccc21 [Example 35, N-{2-[2-(4-Amidinophenyl)-ethyl]-1-methyl-benzimidazol-5-yl}-N-( - naphthylmethyl)-[3-(1-benzyl-piperidin-4-yl)-propionamide]-dihydro-chloride] | 7.85
6 | Cn1c(CCc2ccc(C(=N)N)cc2)nc2cc(N(Cc3cccc4ccccc34)C(=O)CCC3CCN(C(c4ccccc4)c4ccccc4)CC3)ccc21 [Example 64, N-{2-[2-(4-Amidinophenyl)-ethyl]-1-methyl-benzimidazol-5-yl}-N-( - naphthylmethyl)-[3-(1-diphenylmethyl-piperidin-4-yl)-propionamide]-trihydrochloride] | 7.60
7 | Cn1c(CCc2ccc(C(=N)N)cc2)nc2cc(N(Cc3ccc4ccccc4c3)C(=O)CNCc3ccc([N+](=O)[O-])cc3)ccc21 [Example 53, N-{2-[2-(4-Amidinophenyl)-ethyl]-1-methyl-benzimidazol-5-yl}-N-(β-naphthylmethyl)-[2-(4-nitrobenzylamino)-acetamide]-hydrochloride] | 7.04
8 | Cn1c(CCc2ccc(C(=N)N)cc2)nc2cc(N(Cc3ccccc3)C(=O)CCCCNC(=N)N)ccc21 [Example 34, N-{2-[2-(4-Amidinophenyl)-ethyl]-1-methyl-benzimidazol-5-yl}-N-benzyl-[5-guanidino-pentanoic acid amide]-dihydrochloride] | 7.37
9 | Cn1c(CCc2ccc(C(=N)N)cc2)nc2cc(N(Cc3cccc4ccccc34)C(=O)CNCc3ccc(N4CCCC4)cc3)ccc21 [Example 82, N-{2-[2-(4-Amidinophenyl)-ethyl]-1-methyl-benzimidazol-5-yl}-N-( - naphthylmethyl)-[2-(N-4-pyrrolidin-1-ylbenzylamino)-acetamide]-dihydrochloride] | 8.31
10 | Cn1c(CCc2ccc(C(=N)N)cc2)nc2cc(N(Cc3ccc4ccccc4c3)C(=O)CCCc3ccc(N)cc3)ccc21 [Example 55, N-{2-[2-(4-Amidinophenyl)-ethyl]-1-methyl-benzimidazol-5-yl}-N-(β-naphthylmethyl)-[4-(4-aminophenyl)-butyroamide]-dihydrochloride] | 6.76
11 | Cn1c(CCc2ccc(C(=N)N)cc2)nc2cc(N(Cc3ccccc3)C(=O)CCCN)ccc21 [Example 36, N-{2-[2-(4-Amidinophenyl)-ethyl]-1-methyl-benzimidazol-5-yl}-N-benzyl-[4-amino-butanoic acid amide]-dihydrochloride] | 7.15
12 | Cn1c(CCc2ccc(C(=N)N)cc2)nc2cc(N(Cc3cccc4ccccc34)C(=O)CN3CCC(O)(Cc4ccccc4)CC3)ccc21 [Example 69, N-{2-[2-(4-Amidinophenyl)-ethyl]-1-methyl-benzimidazol-5-yl}-N-( - naphthylmethyl)-[2-(4-benzyl-4-hydroxypiperidin-1-yl)-acetamide]-dihydrochloride] | 7.74

Further lines, results first:

Row | pIC50 | Compound
13 | 7.12 | CN(C)CCCC(=O)N(Cc1ccccc1)c1ccc2c(c1)nc(CCc1ccc(C(=N)N)cc1)n2C [Example 37, N-{2-[2-(4-Amidinophenyl)-ethyl]-1-methyl-benzimidazol-5-yl}-N-benzyl-[4-dimethyl-amino-butanoic acid amide]-dihydrochloride]
14 | 7.42 | CN(C)CCCC(=O)N(Cc1cccc2ccccc12)c1ccc2c(c1)nc(CCc1ccc(C(=N)N)cc1)n2C [Example 29, N-{2-[2-(4-Amidinophenyl)-ethyl]-1-methyl-benzimidazol-5-yl}-N-( - naphthylmethyl)-[4-dimethylamino-butanoic acid amide]-dihydrochloride]
15 | 8.15 | Cn1c(CCc2ccc(C(=N)N)cc2)nc2cc(N(Cc3cccc4ccccc34)C(=O)CNCc3ccc(N)cc3)ccc21 [Example 23, N-{2-[2-(4-Amidinophenyl)-ethyl]-1-methyl-benzimidazol-5-yl}-N-( - naphthylmethyl)-[4-aminobenzylamino-acetamide]-trihydrochloride]
16 | 7.20 | Cn1c(CCc2ccc(C(=N)N)cc2)nc2cc(N(Cc3cccc4ccccc34)C(=O)CN3CCCCC3)ccc21 [Example 81, N-{2-[2-(4-Amidinophenyl)-ethyl]-1-methyl-benzimidazol-5-yl}-N-( - naphthylmethyl)-[2-(piperidin-1-yl)-acetamide]-dihydrochloride]
17 | 7.55 | CN(CC(=O)N(Cc1cccc2ccccc12)c1ccc2c(c1)nc(CCc1ccc(C(=N)N)cc1)n2C)Cc1ccccc1 [Example 63, N-{2-[2-(4-Amidinophenyl)-ethyl]-1-methyl-benzimidazol-5-yl}-N-( - naphthylmethyl)-[2-(N-benzyl-N-methylamino)-acetamide]-dihydrochloride]
18 | 7.60 | Cc1ccc(CNCC(=O)N(Cc2cccc3ccccc23)c2ccc3c(c2)nc(CCc2ccc(C(=N)N)cc2)n3C)cc1 [Example 60, N-{2-[2-(4-Amidinophenyl)-ethyl]-1-methyl-benzimidazol-5-yl}-N-(- naphthylmethyl)-[2-(4-methylbenzylamino)-acetamide]-dihydrochloride]
19 | 7.49 | Cn1c(CCc2ccc(C(=N)N)cc2)nc2cc(N(Cc3cccc4ccccc34)C(=O)CCCNC(=N)N)ccc21 [Example 30, N-{2-[2-(4-Amidinophenyl)-ethyl]-1-methyl-benzimidazol-5-yl}-N-( - naphthylmethyl)-[4-guanidino-butanoic acid amide]-dihydrochloride]
20 | 7.89 | Cn1c(CCc2ccc(C(=N)N)cc2)nc2cc(N(Cc3cccc4ccccc34)C(=O)CNCc3ccccc3[N+](=O)[O-])ccc21 [Example 49, N-{2-[2-(4-Amidinophenyl)-ethyl]-1-methyl-benzimidazol-5-yl}-N-( - naphthylmethyl)-[2-(2-nitrobenzylamino)-acctamide]-dihydrochloride]
21 | 7.67 | CN(C)CCCNCC(=O)N(Cc1cccc2ccccc12)c1ccc2c(c1)nc(CCc1ccc(C(=N)N)cc1)n2C [Example 78, N-{2-[2-(4-Amidinophenyl)-ethyl]-1-methyl-benzimidazol-5-yl}-N-(α-naphthylmethyl)-[2-(N-(3-dimethylaminopropyl)-amino)-acetamide]-trihydrochloride]
22 | 8.00 | COc1ccc(CNCC(=O)N(Cc2cccc3ccccc23)c2ccc3c(c2)nc(CCc2ccc(C(=N)N)cc2)n3C)cc1 [Example 43, N-{2-[2-(4-Amidinophenyl)-ethyl]-1-methyl-benzimidazol-5-yl}-N-(- naphthylmethyl)-[2-(4-methoxybenzylamino)-acetamide]-dihydrochloride]
23 | 7.60 | Cn1c(CCc2ccc(C(=N)N)cc2)nc2cc(N(Cc3cccc4ccccc34)C(=O)CNCc3ccccc3N)ccc21 [Example 51, N-{2-[2-(4-Amidinophenyl)-ethyl]-1-methyl-benzimidazol-5-yl}-N-( - naphthylmethyl)-[2-(2-aminobenzylamino)-acetamide]-trihydrochloride]
24 | 7.41 | Cn1c(CCc2ccc(C(=N)N)cc2)nc2cc(N(Cc3cccc4ccccc34)C(=O)CCCN)ccc21 [Example 20, N-{2-[2-(4-Amidinophenyl)-ethyl]-1-methyl-benzimidazol-5-yl}-N-- naphthylmethyl-[4-amino-butanoic acid amide]-dihydrochloride]
25 | 7.33 | Cn1c(CCc2ccc(C(=N)N)cc2)nc2cc(N(Cc3cccc4ccccc34)C(=O)CCC3CCNCC3)ccc21 [Example 38, N-{2-[2-(4-Amidinophenyl)-ethyl]-1-methyl-benzimidazol-5-yl}-N-( - naphthylmethyl)-[3-(piperidin-4-yl)-propionamide]-dihydrochloride]
26 | 7.59 | Cn1c(CCc2ccc(C(=N)N)cc2)nc2cc(N(Cc3cccc4ccccc34)C(=O)CCCCNC(=N)N)ccc21 [Example 27, N-{2-[2-(4-Amidinophenyl)-ethyl]-1-methyl-benzimidazol-5-yl}-N-(- naphthylmethyl)-[5-guanidino-pentanoic acid amide]-dihydrochloride]
